# Data: patent publication US20260242419A1, “A CYCLIC PEPTIDE FOR TRAPPING INTERLEUKIN-1 BETA” (Merck Sharp & Dohme LLC, priority 2023, published 2026)
# pIC50: −log10 of the molar value. Non-standard residues stand in square brackets, D forms with d. Residues, ends and D or L forms follow the SMILES beside them. dPro(4R-(4-pyridylmethyl)) = O=C(O)[C@H]1C[C@@H](Cc2ccncc2)CN1; Trp(βS-Me,4-F) = C[C@@H](c1c[nH]c2cccc(F)c12)[C@H](N)C(=O)O; Bip(4'-CONH2) = NC(=O)c1ccc(-c2ccc(C[C@H](N)C(=O)O)cc2)cc1; Ala(1-bicyclo(1.1.1)pentyl) = N[C@@H](CC12CC(C1)C2)C(=O)O; dPro(3S-(4-F-Bn)) = O=C(O)[C@@H]1NCC[C@@H]1Cc1ccc(F)cc1; Phe(2-Cl,4-COOH) = N[C@@H](Cc1ccc(C(=O)O)cc1Cl)C(=O)O; Ala(pyrimidin-5-yl) = N[C@@H](Cc1cncnc1)C(=O)O; Phe(4-CONH2) = NC(=O)c1ccc(C[C@H](N)C(=O)O)cc1; Phe(4-COOH) = N[C@@H](Cc1ccc(C(=O)O)cc1)C(=O)O; Pro(cis-4-F) = O=C(O)[C@@H]1C[C@H](F)CN1; Ala(4-THP) = N[C@@H](CC1CCOCC1)C(=O)O; AEF = NCCOc1ccc(C[C@H](N)C(=O)O)cc1; d(αMeD) = C[C@@](N)(CC(=O)O)C(=O)O; 4Pal = N[C@@H](Cc1ccncc1)C(=O)O; d(αMeS) = C[C@@](N)(CO)C(=O)O; Dab = NCC[C@H](N)C(=O)O; Aib = CC(C)(N)C(=O)O
# Target: T1, IL-1β (Homo sapiens, UniProt P01584)
# T1 construct: purchased BioLegend 579404
# T1 sequence (P01584 117-269): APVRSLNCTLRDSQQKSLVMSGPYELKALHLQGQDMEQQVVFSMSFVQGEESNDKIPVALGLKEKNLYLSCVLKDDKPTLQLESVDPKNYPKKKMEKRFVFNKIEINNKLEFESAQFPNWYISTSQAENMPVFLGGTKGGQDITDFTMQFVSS
# Test: IL-6 assay in MRC5 cells: inhibition of IL-1β induced IL-6 secretion (AlphaLISA)
# Type: cell-based
# Conditions: inhibition of IL-1β induced IL-6 secretion in MRC5 cells; read-out: MRC5 IC50
# Outline: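 Compound was pre-incubated 1 h at ambient temperature with recombinant human IL-1β at 2λ EC80 before adding human lung fibroblast MRC5 cells (3000/well) in EMEM with 0.025% BSA. After overnight culture at 37 °C, 5% CO2, secreted IL-6 in conditioned medium was measured by AlphaLISA; IC50 from 4-parameter logistic fits.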
row,SMILES,pIC50
1,"CC(=O)NCCOc1ccc(C[C@@H]2NC(=O)[C@H]3C[C@@H](Cc4ccncc4)CN3C(=O)CNC(=O)[C@H](CCN)NC(=O)[C@H](CCC(N)=O)NC(=O)[C@H](Cc3cncnc3)NC(=O)C(C)(C)NC(=O)[C@H](Cc3c[nH]c4ccccc34)NC(=O)[C@H](CO)NC(=O)C(C)(C)NC(=O)[C@H]([C@@H](C)c3c[nH]c4cccc(F)c34)NC(=O)[C@@H]3C[C@H](F)CN3C(=O)CNC(=O)[C@H](Cc3ccc(C(=O)O)cc3Cl)NC(=O)[C@H](Cc3ccncc3)NC2=O)cc1 [Example 367] (cyclo([AEF](Ac)[4Pal][Phe(2-Cl,4-COOH)]G[Pro(cis-4-F)][Trp(βS-Me,4-F)][Aib]SW[Aib][Ala(pyrimidin-5-yl)]Q[Dab]G[dPro(4R-(4-pyridylmethyl))]))",10.77
2,"CC(=O)NCCOc1ccc(C[C@@H]2NC(=O)[C@H]3C[C@@H](Cc4ccncc4)CN3C(=O)CNC(=O)[C@H](CCN)NC(=O)[C@H](CCC(N)=O)NC(=O)[C@H](Cc3cncnc3)NC(=O)C(C)(C)NC(=O)[C@H](Cc3c[nH]c4ccccc34)NC(=O)[C@H](CO)NC(=O)C(C)(C)NC(=O)[C@H]([C@@H](C)c3c[nH]c4cccc(F)c34)NC(=O)[C@@H]3C[C@H](F)CN3C(=O)CNC(=O)[C@H](Cc3ccc(C(=O)O)cc3)NC(=O)[C@H](Cc3ccncc3)NC2=O)cc1 [Example 368] (cyclo([AEF](Ac)[4Pal][Phe(4-COOH)]G[Pro(cis-4-F)][Trp(βS-Me,4-F)][Aib]SW[Aib][Ala(pyrimidin-5-yl)]Q[Dab]G[dPro(4R-(4-pyridylmethyl))]))",10.66
3,"CC(=O)NCCOc1ccc(C[C@@H]2NC(=O)[C@H]3[C@@H](Cc4ccc(F)cc4)CCN3C(=O)CNC(=O)[C@H](CCN)NC(=O)[C@H](CCC(N)=O)NC(=O)[C@H](Cc3cncnc3)NC(=O)[C@@](C)(CC(=O)O)NC(=O)[C@H](Cc3c[nH]c4ccccc34)NC(=O)[C@H](CO)NC(=O)C(C)(C)NC(=O)[C@H]([C@@H](C)c3c[nH]c4cccc(F)c34)NC(=O)[C@@H]3C[C@H](F)CN3C(=O)CNC(=O)[C@H](Cc3ccc(C(=O)O)cc3)NC(=O)[C@H](Cc3ccncc3)NC2=O)cc1 [Example 369] (cyclo([AEF](Ac)[4Pal][Phe(4-COOH)]G[Pro(cis-4-F)][Trp(βS-Me,4-F)][Aib]SW[d(αMeD)][Ala(pyrimidin-5-yl)]Q[Dab]G[dPro(3S-(4-F-Bn))]))",10.68
4,"CC(=O)NCCOc1ccc(C[C@@H]2NC(=O)[C@H]3[C@@H](Cc4ccc(F)cc4)CCN3C(=O)CNC(=O)[C@H](CCN)NC(=O)[C@H](CCC(N)=O)NC(=O)[C@H](CC3CCOCC3)NC(=O)[C@@](C)(CO)NC(=O)[C@H](Cc3c[nH]c4ccccc34)NC(=O)[C@H](CO)NC(=O)C(C)(C)NC(=O)[C@H]([C@@H](C)c3c[nH]c4cccc(F)c34)NC(=O)[C@@H]3C[C@H](F)CN3C(=O)CNC(=O)[C@H](Cc3ccc(C(=O)O)cc3)NC(=O)[C@H](CC34CC(C3)C4)NC2=O)cc1 [Example 371] (cyclo([AEF](Ac)[Ala(1-bicyclo(1.1.1)pentyl)][Phe(4-COOH)]G[Pro(cis-4-F)][Trp(βS-Me,4-F)][Aib]SW[d(αMeS)][Ala(4-THP)]Q[Dab]G[dPro(3S-(4-F-Bn))]))",10.85
5,"CC(=O)NCCOc1ccc(C[C@@H]2NC(=O)[C@H]3[C@@H](Cc4ccc(F)cc4)CCN3C(=O)CNC(=O)[C@H](CCN)NC(=O)[C@H](CCC(N)=O)NC(=O)[C@H](CC3CCOCC3)NC(=O)[C@@](C)(CC(=O)O)NC(=O)[C@H](Cc3c[nH]c4ccccc34)NC(=O)[C@H](CO)NC(=O)C(C)(C)NC(=O)[C@H]([C@@H](C)c3c[nH]c4cccc(F)c34)NC(=O)[C@@H]3C[C@H](F)CN3C(=O)CNC(=O)[C@H](Cc3ccc(C(=O)O)cc3)NC(=O)[C@H](Cc3ccncc3)NC2=O)cc1 [Example 372] (cyclo([AEF](Ac)[4Pal][Phe(4-COOH)]G[Pro(cis-4-F)][Trp(βS-Me,4-F)][Aib]SW[d(αMeD)][Ala(4-THP)]Q[Dab]G[dPro(3S-(4-F-Bn))]))",11.05
6,"CC(=O)NCCOc1ccc(C[C@@H]2NC(=O)[C@H]3[C@@H](Cc4ccc(F)cc4)CCN3C(=O)CNC(=O)[C@H](CCN)NC(=O)[C@H](CCC(N)=O)NC(=O)[C@H](CC3CCOCC3)NC(=O)[C@@](C)(CC(=O)O)NC(=O)[C@H](Cc3c[nH]c4ccccc34)NC(=O)[C@H](CO)NC(=O)C(C)(C)NC(=O)[C@H]([C@@H](C)c3c[nH]c4cccc(F)c34)NC(=O)[C@@H]3C[C@H](F)CN3C(=O)CNC(=O)[C@H](Cc3ccc(C(N)=O)cc3)NC(=O)[C@H](CC34CC(C3)C4)NC2=O)cc1 [Example 373] (cyclo([AEF](Ac)[Ala(1-bicyclo(1.1.1)pentyl)][Phe(4-CONH2)]G[Pro(cis-4-F)][Trp(βS-Me,4-F)][Aib]SW[d(αMeD)][Ala(4-THP)]Q[Dab]G[dPro(3S-(4-F-Bn))]))",10.92
7,"CC(=O)NCCOc1ccc(C[C@@H]2NC(=O)[C@H]3C[C@@H](Cc4ccncc4)CN3C(=O)CNC(=O)[C@H](CCN)NC(=O)[C@H](CCC(N)=O)NC(=O)[C@H](CC3CCOCC3)NC(=O)[C@@](C)(CO)NC(=O)[C@H](Cc3c[nH]c4ccccc34)NC(=O)[C@H](CO)NC(=O)C(C)(C)NC(=O)[C@H]([C@@H](C)c3c[nH]c4cccc(F)c34)NC(=O)[C@@H]3C[C@H](F)CN3C(=O)CNC(=O)[C@H](Cc3ccc(C(N)=O)cc3)NC(=O)[C@H](Cc3ccncc3)NC2=O)cc1 [Example 378] (cyclo([AEF](Ac)[4Pal][Phe(4-CONH2)]G[Pro(cis-4-F)][Trp(βS-Me,4-F)][Aib]SW[d(αMeS)][Ala(4-THP)]Q[Dab]G[dPro(4R-(4-pyridylmethyl))]))",10.37
8,"C[C@@H](c1c[nH]c2cccc(F)c12)[C@@H]1NC(=O)[C@@H]2C[C@H](F)CN2C(=O)CNC(=O)[C@H](Cc2ccc(C(=O)O)cc2)NC(=O)[C@H](Cc2ccncc2)NC(=O)[C@H](Cc2ccc(-c3ccc(C(N)=O)cc3)cc2)NC(=O)[C@H]2[C@@H](Cc3ccc(F)cc3)CCN2C(=O)CNC(=O)[C@H](CCN)NC(=O)[C@H](CCC(N)=O)NC(=O)[C@H](Cc2cncnc2)NC(=O)[C@@](C)(CC(=O)O)NC(=O)[C@H](Cc2c[nH]c3ccccc23)NC(=O)[C@H](CO)NC(=O)C(C)(C)NC1=O [Example 379] (cyclo([Bip(4'-CONH2)][4Pal][Phe(4-COOH)]G[Pro(cis-4-F)][Trp(βS-Me,4-F)][Aib]SW[d(αMeD)][Ala(pyrimidin-5-yl)]Q[Dab]G[dPro(3S-(4-F-Bn))]))",10.80

# Continued, values first:
row,pIC50,SMILES
1,10.82,"CC(=O)NCCOc1ccc(C[C@@H]2NC(=O)[C@H]3[C@@H](Cc4ccc(F)cc4)CCN3C(=O)CNC(=O)[C@H](CCN)NC(=O)[C@H](CCC(N)=O)NC(=O)[C@H](CC3CCOCC3)NC(=O)[C@@](C)(CC(=O)O)NC(=O)[C@H](Cc3c[nH]c4ccccc34)NC(=O)[C@H](CO)NC(=O)C(C)(C)NC(=O)[C@H]([C@@H](C)c3c[nH]c4cccc(F)c34)NC(=O)[C@@H]3C[C@H](F)CN3C(=O)CNC(=O)[C@H](Cc3ccc(C(=O)O)cc3)NC(=O)[C@H](CC34CC(C3)C4)NC2=O)cc1 [Example 370] (cyclo([AEF](Ac)[Ala(1-bicyclo(1.1.1)pentyl)][Phe(4-COOH)]G[Pro(cis-4-F)][Trp(βS-Me,4-F)][Aib]SW[d(αMeD)][Ala(4-THP)]Q[Dab]G[dPro(3S-(4-F-Bn))]))"
2,10.77,"CC(=O)NCCOc1ccc(C[C@@H]2NC(=O)[C@H]3C[C@@H](Cc4ccncc4)CN3C(=O)CNC(=O)[C@H](CCN)NC(=O)[C@H](CCC(N)=O)NC(=O)[C@H](CC3CCOCC3)NC(=O)[C@@](C)(CC(=O)O)NC(=O)[C@H](Cc3c[nH]c4ccccc34)NC(=O)[C@H](CO)NC(=O)C(C)(C)NC(=O)[C@H]([C@@H](C)c3c[nH]c4cccc(F)c34)NC(=O)[C@@H]3C[C@H](F)CN3C(=O)CNC(=O)[C@H](Cc3ccc(C(=O)O)cc3)NC(=O)[C@H](CC34CC(C3)C4)NC2=O)cc1 [Example 374] (cyclo([AEF](Ac)[Ala(1-bicyclo(1.1.1)pentyl)][Phe(4-COOH)]G[Pro(cis-4-F)][Trp(βS-Me,4-F)][Aib]SW[d(αMeD)][Ala(4-THP)]Q[Dab]G[dPro(4R-(4-pyridylmethyl))]))"
3,10.60,"CC(=O)NCCOc1ccc(C[C@@H]2NC(=O)[C@H]3C[C@@H](Cc4ccncc4)CN3C(=O)CNC(=O)[C@H](CCN)NC(=O)[C@H](CCC(N)=O)NC(=O)[C@H](CC3CCOCC3)NC(=O)[C@@](C)(CO)NC(=O)[C@H](Cc3c[nH]c4ccccc34)NC(=O)[C@H](CO)NC(=O)C(C)(C)NC(=O)[C@H]([C@@H](C)c3c[nH]c4cccc(F)c34)NC(=O)[C@@H]3C[C@H](F)CN3C(=O)CNC(=O)[C@H](Cc3ccc(C(=O)O)cc3)NC(=O)[C@H](CC34CC(C3)C4)NC2=O)cc1 [Example 375] (cyclo([AEF](Ac)[Ala(1-bicyclo(1.1.1)pentyl)][Phe(4-COOH)]G[Pro(cis-4-F)][Trp(βS-Me,4-F)][Aib]SW[d(αMeS)][Ala(4-THP)]Q[Dab]G[dPro(4R-(4-pyridylmethyl))]))"
4,10.32,"CC(=O)NCCOc1ccc(C[C@@H]2NC(=O)[C@H]3C[C@@H](Cc4ccncc4)CN3C(=O)CNC(=O)[C@H](CCN)NC(=O)[C@H](CCC(N)=O)NC(=O)[C@H](CC3CCOCC3)NC(=O)[C@@](C)(CC(=O)O)NC(=O)[C@H](Cc3c[nH]c4ccccc34)NC(=O)[C@H](CO)NC(=O)C(C)(C)NC(=O)[C@H]([C@@H](C)c3c[nH]c4cccc(F)c34)NC(=O)[C@@H]3C[C@H](F)CN3C(=O)CNC(=O)[C@H](Cc3ccc(C(N)=O)cc3)NC(=O)[C@H](CC34CC(C3)C4)NC2=O)cc1 [Example 376] (cyclo([AEF](Ac)[Ala(1-bicyclo(1.1.1)pentyl)][Phe(4-CONH2)]G[Pro(cis-4-F)][Trp(βS-Me,4-F)][Aib]SW[d(αMeD)][Ala(4-THP)]Q[Dab]G[dPro(4R-(4-pyridylmethyl))]))"
5,10.40,"CC(=O)NCCOc1ccc(C[C@@H]2NC(=O)[C@H]3C[C@@H](Cc4ccncc4)CN3C(=O)CNC(=O)[C@H](CCN)NC(=O)[C@H](CCC(N)=O)NC(=O)[C@H](CC3CCOCC3)NC(=O)[C@@](C)(CC(=O)O)NC(=O)[C@H](Cc3c[nH]c4ccccc34)NC(=O)[C@H](CO)NC(=O)C(C)(C)NC(=O)[C@H]([C@@H](C)c3c[nH]c4cccc(F)c34)NC(=O)[C@@H]3C[C@H](F)CN3C(=O)CNC(=O)[C@H](Cc3ccc(C(N)=O)cc3)NC(=O)[C@H](Cc3ccncc3)NC2=O)cc1 [Example 377] (cyclo([AEF](Ac)[4Pal][Phe(4-CONH2)]G[Pro(cis-4-F)][Trp(βS-Me,4-F)][Aib]SW[d(αMeD)][Ala(4-THP)]Q[Dab]G[dPro(4R-(4-pyridylmethyl))]))"
